The values below come from BindingDB's records for patent US9682141 (Intellikine LLC, 2017).

Experiment [1] deals with Phosphatidylinositol 4,5-bisphosphate 3-kinase catalytic subunit beta isoform (Homo sapiens, UniProt P42338). Put plainly: PI 3-Kinase HTRF Assay. To be noted: 25 °C.
Procedure: (§1) Briefly, the assay is a time resolved FRET assay that indirectly measures PIP3 product formed by the activity of a PI3-K. The kinase reaction is performed in a microtitre plate (e.g., a 384 well microtitre plate). The total reaction volume is approximately 20 ul per well. In the first step, each well receives 2 ul of test compound in 20% dimethylsulphoxide resulting in a 2% DMSO final concentration. Next, approximately 14.5 ul of a kinase/PIP2 mixture (diluted in 1x reaction buffer) is added per well for a final concentration of 0.25-0.3 ug/ml kinase and 10 uM PIP2. The plate is sealed and incubated for 15 minutes at room temperature. To start the reaction, 3.5 ul of ATP (diluted in 1x reaction buffer) is added per well for a final concentration of 10 uM ATP. The plate is sealed and incubated for 1 hour at room temperature. The reaction is stopped by adding 5 ul of Stop Solution per well and then 5 ul of Detection Mix is added per well. The plate is sealed, incubated for 1 hour at room temperature, and then read on an appropriate plate reader.
The target of experiment [2] is Phosphatidylinositol 4,5-bisphosphate 3-kinase catalytic subunit alpha isoform (Homo sapiens, UniProt P42336). As to the kind of experiment: PI 3-Kinase HTRF Assay. To be noted: 25 °C. Background: In TR-FRET formats the signal depends on donor and acceptor labels being close together.
Phosphatidylinositol 4,5-bisphosphate 3-kinase catalytic subunit alpha isoform, sequence (P42336 whole entry, canonical isoform): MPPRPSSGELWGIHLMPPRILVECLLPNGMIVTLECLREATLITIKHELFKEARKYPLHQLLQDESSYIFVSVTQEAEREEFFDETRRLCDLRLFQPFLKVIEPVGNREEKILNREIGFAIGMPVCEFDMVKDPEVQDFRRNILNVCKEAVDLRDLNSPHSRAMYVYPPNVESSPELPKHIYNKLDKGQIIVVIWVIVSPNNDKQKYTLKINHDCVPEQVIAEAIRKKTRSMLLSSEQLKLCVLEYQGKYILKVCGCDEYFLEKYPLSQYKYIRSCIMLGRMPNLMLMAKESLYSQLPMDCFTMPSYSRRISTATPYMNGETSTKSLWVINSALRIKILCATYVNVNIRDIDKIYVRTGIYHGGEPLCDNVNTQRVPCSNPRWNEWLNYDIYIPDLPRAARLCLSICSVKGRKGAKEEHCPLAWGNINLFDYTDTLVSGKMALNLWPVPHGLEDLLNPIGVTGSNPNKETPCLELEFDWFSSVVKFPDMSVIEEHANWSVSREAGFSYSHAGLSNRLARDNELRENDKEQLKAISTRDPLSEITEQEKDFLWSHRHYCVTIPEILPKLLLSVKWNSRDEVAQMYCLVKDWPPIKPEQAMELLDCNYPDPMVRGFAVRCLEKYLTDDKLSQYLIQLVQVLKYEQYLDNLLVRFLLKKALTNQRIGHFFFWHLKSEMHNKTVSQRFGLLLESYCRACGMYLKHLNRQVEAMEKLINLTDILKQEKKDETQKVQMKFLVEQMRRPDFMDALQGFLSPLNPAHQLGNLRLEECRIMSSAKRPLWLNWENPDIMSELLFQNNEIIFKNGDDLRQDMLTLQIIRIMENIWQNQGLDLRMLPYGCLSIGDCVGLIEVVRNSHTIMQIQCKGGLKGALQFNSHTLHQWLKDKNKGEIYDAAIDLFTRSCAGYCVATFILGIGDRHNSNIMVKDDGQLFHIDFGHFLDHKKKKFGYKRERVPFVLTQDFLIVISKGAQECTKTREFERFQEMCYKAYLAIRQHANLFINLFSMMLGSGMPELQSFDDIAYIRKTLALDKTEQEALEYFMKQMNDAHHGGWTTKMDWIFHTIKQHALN
Procedure: as §1

Phosphatidylinositol 4,5-bisphosphate 3-kinase catalytic subunit beta isoform, sequence (P42338 whole entry, canonical isoform): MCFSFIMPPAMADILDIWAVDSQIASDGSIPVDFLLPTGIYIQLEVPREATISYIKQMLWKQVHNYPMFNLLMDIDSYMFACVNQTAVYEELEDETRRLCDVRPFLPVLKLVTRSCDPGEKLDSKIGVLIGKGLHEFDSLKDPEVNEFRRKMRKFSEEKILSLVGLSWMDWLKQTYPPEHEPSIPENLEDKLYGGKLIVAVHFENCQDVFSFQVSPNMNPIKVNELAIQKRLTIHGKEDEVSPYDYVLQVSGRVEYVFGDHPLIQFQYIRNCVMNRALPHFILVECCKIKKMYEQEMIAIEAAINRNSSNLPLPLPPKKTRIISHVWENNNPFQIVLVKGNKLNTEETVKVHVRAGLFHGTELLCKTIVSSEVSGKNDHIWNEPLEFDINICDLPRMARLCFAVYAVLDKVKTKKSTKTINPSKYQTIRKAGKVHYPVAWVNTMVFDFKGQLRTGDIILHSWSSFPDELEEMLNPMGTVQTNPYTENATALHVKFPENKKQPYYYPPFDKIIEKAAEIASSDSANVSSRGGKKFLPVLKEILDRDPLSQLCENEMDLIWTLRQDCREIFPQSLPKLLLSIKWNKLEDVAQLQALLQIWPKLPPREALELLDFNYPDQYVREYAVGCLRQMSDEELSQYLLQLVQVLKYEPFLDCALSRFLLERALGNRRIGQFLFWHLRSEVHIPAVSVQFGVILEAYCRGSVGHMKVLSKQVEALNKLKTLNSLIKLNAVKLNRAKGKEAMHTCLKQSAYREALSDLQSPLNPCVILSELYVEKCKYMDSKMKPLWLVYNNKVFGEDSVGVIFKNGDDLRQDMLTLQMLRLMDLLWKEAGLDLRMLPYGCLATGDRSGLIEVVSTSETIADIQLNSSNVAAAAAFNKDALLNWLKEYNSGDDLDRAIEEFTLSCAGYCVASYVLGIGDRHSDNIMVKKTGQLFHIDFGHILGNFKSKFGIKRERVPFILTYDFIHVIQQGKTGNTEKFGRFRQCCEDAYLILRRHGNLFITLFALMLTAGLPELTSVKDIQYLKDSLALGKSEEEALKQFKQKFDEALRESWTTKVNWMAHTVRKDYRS

For orientation: IC50 means the concentration at which inhibition is half-maximal. On to `Nc1nc2cc(-c3ccc4ncn(-c5ccccc5)c4c3)ccc2o1` [US9682141, 11], for which the IC50 is < 10 µM in experiment [1] and < 0.1 µM in experiment [2].
As for `Nc1nc2cc(-c3ccc4ncc(-c5ccncc5)n4c3)ccc2o1` [US9682141, 6], the IC50 in experiment [1] is < 10 µM.
